As usually defined, the pIC50 is the IC50 on a negative log10 scale, so that one unit is a factor of ten. Lower therefore signals a high IC50.

pIC50: −log10 of the molar value.

The target of the assay is T1, Jarid1A (Homo sapiens, UniProt P29375).
T1 construct: purchased BPS Bioscience 50110
T1 sequence (P29375 1-1090): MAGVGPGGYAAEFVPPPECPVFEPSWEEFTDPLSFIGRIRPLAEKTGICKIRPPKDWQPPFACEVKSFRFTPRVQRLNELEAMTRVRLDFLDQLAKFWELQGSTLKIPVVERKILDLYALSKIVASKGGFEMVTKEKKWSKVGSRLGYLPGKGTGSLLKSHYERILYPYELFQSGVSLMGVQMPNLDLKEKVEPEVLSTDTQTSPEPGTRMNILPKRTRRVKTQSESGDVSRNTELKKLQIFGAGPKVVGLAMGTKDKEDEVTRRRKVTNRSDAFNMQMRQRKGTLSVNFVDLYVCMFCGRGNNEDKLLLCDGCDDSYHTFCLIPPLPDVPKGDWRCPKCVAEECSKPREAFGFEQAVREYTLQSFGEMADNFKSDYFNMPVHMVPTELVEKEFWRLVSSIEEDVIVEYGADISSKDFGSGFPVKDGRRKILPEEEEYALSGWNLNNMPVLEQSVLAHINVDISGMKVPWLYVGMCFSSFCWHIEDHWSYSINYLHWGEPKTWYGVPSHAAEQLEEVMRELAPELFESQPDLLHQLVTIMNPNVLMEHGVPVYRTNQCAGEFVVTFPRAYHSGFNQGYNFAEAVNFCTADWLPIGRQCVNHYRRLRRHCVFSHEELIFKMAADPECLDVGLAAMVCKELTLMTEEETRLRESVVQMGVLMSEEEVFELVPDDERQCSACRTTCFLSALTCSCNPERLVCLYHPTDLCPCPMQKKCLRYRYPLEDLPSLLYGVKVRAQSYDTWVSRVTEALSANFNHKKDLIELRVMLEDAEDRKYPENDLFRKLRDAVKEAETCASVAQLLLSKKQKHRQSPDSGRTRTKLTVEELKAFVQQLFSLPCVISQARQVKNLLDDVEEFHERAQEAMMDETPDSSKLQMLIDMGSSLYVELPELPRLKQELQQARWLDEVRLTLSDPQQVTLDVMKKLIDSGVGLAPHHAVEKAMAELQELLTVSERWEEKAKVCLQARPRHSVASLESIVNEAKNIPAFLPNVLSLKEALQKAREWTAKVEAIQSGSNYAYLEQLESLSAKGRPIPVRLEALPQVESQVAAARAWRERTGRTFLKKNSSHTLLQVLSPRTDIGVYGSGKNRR
Kind of assay: Jarid1A in vitro enzyme inhibition assay (TR-FRET). Format: biochemical. In a few lines:
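Demethylation of 300 nM biotin-H3K4me3 peptide by 1 nM baculovirus-expressed Jarid1A (aa 1–1090) with 2 μM α-ketoglutarate, Fe(II) and ascorbate, pH 7.3, 30 min at room temperature. Stopped with EDTA; H3K4me1-2 product detected by TR-FRET (Eu anti-H3K4me1-2/streptavidin-APC). IC50 fitted from 665/615 ratio over 11-point dilutions.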
(In general: TR-FRET usually uses a lanthanide donor and a delayed reading to cut background.)
Take `Oc1nc(OCc2ccc3ccccc3c2)nc2cnccc12` [Example 187, 2-(naphthalen-2-ylmethoxy)pyrido[3,4-d]pyrimidin-4-ol]: the pIC50 is 5.00 to 6.00.
For the compound `Oc1nc(OCc2ccccc2-c2ccccc2)nc2cnccc12` [Example 185, 2-[(2-phenylphenyl)methoxy]pyrido[3,4-d]pyrimidin-4-ol], the pIC50 is 5.00 to 6.00.
Consider `Oc1nc(OCc2cccc(F)c2F)nc2cnccc12` [Example 181, 2-[(2,3-difluorophenyl)methoxy]pyrido[3,4-d]pyrimidin-4-ol], for which the pIC50 is 5.00 to 6.00.
As for `N#Cc1cccc(COc2nc(O)c3ccncc3n2)c1` [Example 32, 3-[(4-hydroxypyrido[3,4-d]pyrimidin-2-yl)oxymethyl]benzonitrile], the figure is 6.00 to 7.00; as for `Oc1nc(OCC2CCc3ccccc32)nc2cnccc12` (stereo not drawn) [Example 190, 2-(2,3-dihydro-1H-inden-1-ylmethoxy)pyrido[3,4-d]pyrimidin-4-ol], 6.00 to 7.00.
As for `Oc1nc(OCC2CCOc3ccccc32)nc2cnccc12` (stereo not drawn) [Example 195, 2-(3,4-dihydro-2H-1-benzopyran-4-ylmethoxy)pyrido[3,4-d]pyrimidin-4-ol], the pIC50 was 6.00 to 7.00.
Turning to `Oc1nc(OC2CCCc3ccccc32)nc2cnccc12` (stereo not drawn) [Example 196, 2-(1,2,3,4-tetrahydronaphthalen-1-yloxy)pyrido[3,4-d]pyrimidin-4-ol], the pIC50 is 5.00 to 6.00.
Under `CC(C)OCCOc1nc(O)c2ccncc2n1` [Example 29, 2-(2-propan-2-yloxyethoxy)pyrido[3,4-d]pyrimidin-4-ol] stands 6.00 to 7.00; under `Oc1nc(OCc2cccc(F)c2)nc2cnccc12` [Example 179, 2-[(3-fluorophenyl)methoxy]pyrido[3,4-d]pyrimidin-4-ol], 5.00 to 6.00; under `O=C(NCCOc1nc(O)c2ccncc2n1)c1ccccc1` [Example 31, N-[2-(4-hydroxypyrido[3,4-d]pyrimidin-2-yl)oxyethyl]benzamide], no less than 7.00.
`Oc1nc(OCC2CCCO2)nc2cnccc12` (stereo not drawn) [Example 26, 2-(oxolan-2-ylmethoxy)pyrido[3,4-d]pyrimidin-4-ol] showed a pIC50 of 6.00 to 7.00.
As for `Oc1nc(OCc2cc(F)ccc2F)nc2cnccc12` [Example 182, 2-[(2,5-difluorophenyl)methoxy]pyrido[3,4-d]pyrimidin-4-ol], the figure is 5.00 to 6.00; as for `Oc1nc(OCCOCc2ccccc2)nc2cnccc12` [Example 30, 2-(2-phenylmethoxyethoxy)pyrido[3,4-d]pyrimidin-4-ol], 6.00 to 7.00; as for `Oc1nc(OCC2CCOC2)nc2cnccc12` (stereo not drawn) [Example 27, 2-(oxolan-3-ylmethoxy)pyrido[3,4-d]pyrimidin-4-ol], 6.00 to 7.00.
Under `CC(CO)COc1nc(O)c2ccncc2n1` (stereo not drawn) [Example 25, 2-(3-hydroxy-2-methylpropoxy)pyrido[3,4-d]pyrimidin-4-ol] stands 6.00 to 7.00; under `CC(C)Oc1nc(O)c2ccncc2n1` [Example 1, 2-propan-2-yloxy-3H-pyrido[3,4-d]pyrimidin-4-one], 6.00 to 7.00.
Under `Oc1nc(OC2CCc3ccccc32)nc2cnccc12` (stereo not drawn) [Example 192, 2-(2,3-dihydro-1H-inden-1-yloxy)pyrido[3,4-d]pyrimidin-4-ol] stands 5.00 to 6.00; under `Oc1nc(OCc2coc3ccccc23)nc2cnccc12` [Example 193, 2-(1-benzofuran-3-ylmethoxy)pyrido[3,4-d]pyrimidin-4-ol], 6.00 to 7.00; under `Oc1nc(OCc2cccc(-c3ccccc3)c2)nc2cnccc12` [Example 186, 2-[(3-phenylphenyl)methoxy]pyrido[3,4-d]pyrimidin-4-ol], 5.00 to 6.00.
Take `Oc1nc(OC2CCOc3ccccc32)nc2cnccc12` (stereo not drawn) [Example 197, 2-(3,4-dihydro-2H-1-benzopyran-4-yloxy)pyrido[3,4-d]pyrimidin-4-ol]: the pIC50 is 6.00 to 7.00.
As for `Oc1nc(OCc2c(F)cccc2F)nc2cnccc12` [Example 183, 2-[(2,6-difluorophenyl)methoxy]pyrido[3,4-d]pyrimidin-4-ol], the figure is 5.00 to 6.00; as for `Oc1nc(OCCOCC(F)(F)F)nc2cnccc12` [Example 23, 2-[2-(2,2,2-trifluoroethoxy)ethoxy]pyrido[3,4-d]pyrimidin-4-ol], 6.00 to 7.00.
In turn, `Oc1nc(OCc2ccc(F)cc2)nc2cnccc12` [Example 180, 2-[(4-fluorophenyl)methoxy]pyrido[3,4-d]pyrimidin-4-ol] showed a pIC50 of 5.00 to 6.00.
The compound `CC(C)(O)CCOc1nc(O)c2ccncc2n1` [Example 24, 2-(3-hydroxy-3-methylbutoxy)pyrido[3,4-d]pyrimidin-4-ol] showed a pIC50 of no less than 7.00.
Under `Oc1nc(OCC2COc3ccccc32)nc2cnccc12` (stereo not drawn) [Example 194, 2-(2,3-dihydro-1-benzofuran-3-ylmethoxy)pyrido[3,4-d]pyrimidin-4-ol] stands 5.00 to 6.00.
As to `Cn1ccc(COc2nc(O)c3ccncc3n2)n1` [Example 33, 2-[(1-methylpyrazol-3-yl)methoxy]pyrido[3,4-d]pyrimidin-4-ol], the pIC50 is 5.00 to 6.00.
Regarding `CC(=O)N(C)CCOc1nc(O)c2ccncc2n1` [Example 28, N-[2-(4-hydroxypyrido[3,4-d]pyrimidin-2-yl)oxyethyl]-N-methylacetamide], the pIC50 is 6.00 to 7.00.
As for `Oc1nc(OC2Cc3ccccc3C2)nc2cnccc12` [Example 189, 2-(2,3-dihydro-1H-inden-2-yloxy)pyrido[3,4-d]pyrimidin-4-ol], the pIC50 is 6.00 to 7.00.
Under `Oc1nc(OCc2ccccc2C(F)(F)F)nc2cnccc12` [Example 177, 2-{[2-(trifluoromethyl)phenyl]methoxy}pyrido[3,4-d]pyrimidin-4-ol] stands 5.00 to 6.00.
Regarding `Oc1nc(OCC2CCc3ccccc3C2)nc2cnccc12` (stereo not drawn) [Example 191, 2-(1,2,3,4-tetrahydronaphthalen-2-ylmethoxy)pyrido[3,4-d]pyrimidin-4-ol], the pIC50 is 6.00 to 7.00.
`Oc1nc(OCC2CCCc3ccccc32)nc2cnccc12` (stereo not drawn) [Example 188, 2-(1,2,3,4-tetrahydronaphthalen-1-ylmethoxy)pyrido[3,4-d]pyrimidin-4-ol] showed a pIC50 of 6.00 to 7.00.
Under `Oc1nc(OCc2ccccc2F)nc2cnccc12` [Example 178, 2-[(2-fluorophenyl)methoxy]pyrido[3,4-d]pyrimidin-4-ol] stands 5.00 to 6.00; under `Oc1nc(OCc2cccc3ccccc23)nc2cnccc12` [Example 184, 2-(naphthalen-1-ylmethoxy)pyrido[3,4-d]pyrimidin-4-ol], 5.00 to 6.00.
Under `Cn1cnc(-c2nccc3c(=O)[nH]cnc23)c1` [Example 198, 8-(1-methylimidazol-4-yl)-3H-pyrido[3,4-d]pyrimidin-4-one] stands 6.00 to 7.00; under `CCOc1nc(O)c2ccncc2n1` [Example 2, 2-ethoxypyrido[3,4-d]pyrimidin-4-ol], no less than 7.00.
Under `Oc1nc(Oc2ccccc2)nc2cnccc12` [Example 34, 2-phenoxypyrido[3,4-d]pyrimidin-4-ol] stands no less than 7.00.

Source of the values: US10526327B2, “Histone demethylase inhibitors” (CELGENE QUANTICEL RESEARCH, INC., priority 2013, dated 2020).
